Converted amounts (≈) assume the structure as drawn. Where two headings read alike, the source gives them in different places.

The nature of data set [1]: Solubility Determination Assay in PBS pH 1.6 and pH 7.4. The format is physicochemical. Conditions: PBS buffer, aqueous buffer, kinetic from dmso stock. The protocol: The stock solutions of test compounds and control compound progesterone were prepared in DMSO at the concentrations of 10 mM. 15 μL of stock solution (10 mM) of each sample was placed in order into their proper 96-well rack. 485 μL of PBS pH 1.6 and pH 7.4 were added into each vial of the cap-less Solubility Sample plate. The assay was performed in singlet. One stir stick was added to each vial and then the vial was sealed using a molded PTFE/Silicone plug. […] After completion of the 2 hours, plugs were removed and the stir sticks were removed using a big magnet. The samples from the Solubility Sample plate were transferred into the filter plate. Using the Vacuum Manifold, all the samples were filtered. An aliquot of 5 μL was taken from the filtrate followed by addition of 495 μL of a mixture of H2O and acetonitrile containing internal standard (1:1). A certain proportion of ultrapure water was used to dilute the diluent according to the peak shape. The dilution factor was changed according to the solubility values and the LC-MS signal response.
From the 10 mM DMSO STD plate, 6 μL was transferred into the remaining empty plate, and then 194 μL of DMSO were added to that plate to have a STD concentration of 300 μM. From the 300 μM DMSO STD plate, 5 μL were transferred into the remaining empty plate, and then 495 μL of a mixture of H2O and acetonitrile containing internal standard (1:1) were added to that plate to have a final STD concentration of 3 μM. A certain proportion of ultrapure water was used to dilute the diluent according to the peak shape. The concentrations of the standard samples were changed according to the LC-MS signal response.
The plate was placed into the well plate autosampler. The samples were evaluated by LC-MS/MS analysis.
All calculations were carried out using Microsoft Excel.
The filtrate was analyzed and quantified against a standard of known concentration using LC coupled with mass spectral peak identification and quantitation. Solubility values of the test compound and control compound were calculated as follows: […]
Any value of the compounds that was not within the specified limits was rejected and the experiment was repeated.
“+++” indicates a solubility value equal to or greater than 1 μM, “++” indicates a solubility value between 0.1 and 1 μM, and “+” indicates a solubility value less than 0.1 μM.

Another data set deals with T1, AHR (Homo sapiens, UniProt P35869).
T1 construct: other cell line with a DRE-luciferase reporter stably transfected; endogenous in cells; host or cells: HepG2 AhR-Lucia reporter cells
T1 sequence (P35869 11-848): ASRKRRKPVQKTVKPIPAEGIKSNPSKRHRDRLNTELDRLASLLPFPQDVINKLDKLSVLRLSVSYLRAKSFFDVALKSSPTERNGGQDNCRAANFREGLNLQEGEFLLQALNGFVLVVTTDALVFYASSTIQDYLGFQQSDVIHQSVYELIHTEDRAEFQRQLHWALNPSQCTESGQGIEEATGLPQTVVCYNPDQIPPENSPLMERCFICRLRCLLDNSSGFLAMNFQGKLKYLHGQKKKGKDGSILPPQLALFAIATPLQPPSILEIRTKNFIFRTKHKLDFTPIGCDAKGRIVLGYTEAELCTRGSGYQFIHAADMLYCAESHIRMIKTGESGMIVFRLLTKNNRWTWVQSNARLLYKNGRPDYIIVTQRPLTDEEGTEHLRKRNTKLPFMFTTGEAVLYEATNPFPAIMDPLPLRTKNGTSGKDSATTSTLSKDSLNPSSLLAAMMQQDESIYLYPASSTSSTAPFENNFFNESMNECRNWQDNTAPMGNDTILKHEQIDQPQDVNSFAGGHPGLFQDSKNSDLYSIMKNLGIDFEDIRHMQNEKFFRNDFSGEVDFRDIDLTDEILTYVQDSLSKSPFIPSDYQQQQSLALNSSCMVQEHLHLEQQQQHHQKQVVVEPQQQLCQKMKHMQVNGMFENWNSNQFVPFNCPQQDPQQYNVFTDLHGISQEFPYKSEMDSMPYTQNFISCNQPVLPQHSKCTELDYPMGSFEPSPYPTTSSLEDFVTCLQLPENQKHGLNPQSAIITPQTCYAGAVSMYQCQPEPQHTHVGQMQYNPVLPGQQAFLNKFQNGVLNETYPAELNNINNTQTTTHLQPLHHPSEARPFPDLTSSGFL
Description: DRE-Luciferase Reporter Assay, HepG2 AhR-Lucia reporter cells. Conditions: with AHR activating ligand at EC50, read-out: HepG2-Luc IC50. Type of data set: cell-based. A digest of the protocol:
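DRE-luciferase reporter cells (e.g. HepG2 AhR-Lucia, 20000 cells) treated with antagonist log dilutions from 100 uM, then an AHR agonist (e.g. TCDD, kynurenine, ITE, FICZ) at its EC50 added after 1 hr. Secreted luciferase measured after 24 or 48 h (QUANTI-Luc); IC50 = concentration halving luciferase activity.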

[2] abbreviates: PBS pH 1.6, 25° C., read-out: Aq. Solubility at pH = 1.6.
Setting [3] is: PBS pH 7.4, 25° C., read-out: Aq. Solubility at pH = 7.4.

A word on the solubility: it is how much of the substance goes into solution per volume. In general, IC50 refers to the concentration that inhibits the measured activity by half. Consider `O=c1c2cc(-c3ccc(C(F)(F)F)cn3)nc(-c3cccnc3)c2ncn1C[C@H](O)C(F)(F)F` [Compound 104, (S)-8-(pyridin-3-yl)-3-(3,3,3-trifluoro-2-hydroxypropyl)-6-(5-(trifluoromethyl)pyridin-2-yl)pyrido[3,4-d]pyrimidin-4(3H)-one], for which the solubility at 2 h in data set [1] (setting [2]) and in data set [1] (setting [3]) was ≥ 1 µM throughout. For the same compound, the IC50 at AHR was < 100 nM.
In the case of `O=c1c2cc(-c3ccc(C(F)(F)F)cn3)nc(-c3cccnc3)c2ncn1C[C@@H](O)C(F)(F)F` [Compound 154, (R)-8-(pyridin-3-yl)-3-(3,3,3-trifluoro-2-hydroxypropyl)-6-(5-(trifluoromethyl)pyridin-2-yl)pyrido[3,4-d]pyrimidin-4(3H)-one], the solubility at 2 h in data set [1] (setting [2]) and in data set [1] (setting [3]) was ≥ 1 µM throughout. Further, on AHR, the IC50 is < 100 nM.
On to `O=c1c2cc(-c3ccc(C(F)(F)F)nc3)nc(-c3cccnc3)c2ncn1[C@@H]1COC[C@H]1O` [Compound 79], for which the solubility at 2 h in data set [1] (setting [2]) and in data set [1] (setting [3]) was ≥ 1 µM each time. Further, the IC50 on AHR is < 100 nM.
Turning to `CC(C)(O)Cn1cnc2c(-c3cccnc3)nc(-c3ccc(C(F)(F)F)cn3)cc2c1=O` [Compound 105], the solubility at 2 h in data set [1] (setting [2]) and in data set [1] (setting [3]) was ≥ 1 µM in each case. Further, the IC50 on AHR is < 100 nM.
Turning to `C[C@@H](CO)n1cnc2c(-c3cccnc3)nc(-c3ccc(OC(F)(F)F)nc3)cc2c1=O` [Compound 50], the solubility at 2 h in data set [1] (setting [2]) and in data set [1] (setting [3]) was ≥ 1 µM throughout. Further, the IC50 on AHR is < 100 nM.
Consider `Cn1cc(-c2nc(-c3ccc(C(F)(F)F)nc3)cc3c(=O)n([C@H]4COC[C@@H]4O)cnc23)cn1` [Compound 114, 3-((3S,4R)-4-hydroxytetrahydrofuran-3-yl)-8-(1-methyl-1H-pyrazol-4-yl)-6-(6-(trifluoromethyl)pyridin-3-yl)pyrido[3,4-d]pyrimidin-4(3H)-one], for which the solubility at 2 h in data set [1] (setting [2]) and in data set [1] (setting [3]) was 0.1 to 1 µM (≈ 0.0458 to 0.458 µg/mL) in each case. Moreover, the IC50 at AHR was < 100 nM.
Turning to `Cn1cc(-c2nc(-c3ccc(C(F)(F)F)cn3)cc3c(=O)n([C@H]4COC[C@H]4O)cnc23)cn1` [Compound 151, 3-((3S,4S)-4-hydroxytetrahydrofuran-3-yl)-8-(1-methyl-1H-pyrazol-4-yl)-6-(5-(trifluoromethyl)pyridin-2-yl)pyrido[3,4-d]pyrimidin-4(3H)-one], the solubility at 2 h in data set [1] (setting [2]) and in data set [1] (setting [3]) was 0.1 to 1 µM (≈ 0.0458 to 0.458 µg/mL) throughout. Moreover, the IC50 at AHR was < 100 nM.
In the case of `C[C@@H](CO)n1cnc2c(-c3cccnc3)nc(-c3cnc(C(F)(F)F)s3)cc2c1=O` [Compound 85], the solubility at 2 h in data set [1] (setting [2]) and in data set [1] (setting [3]) was ≥ 1 µM each time. At AHR, the IC50 is < 100 nM.
Turning to `CC(C)(O)Cn1cnc2c(-n3ccnc3)nc(-c3ccc(C(F)(F)F)cn3)cc2c1=O` [Compound 160, 3-(2-hydroxy-2-methylpropyl)-8-(1H-imidazol-1-yl)-6-(5-(trifluoromethyl)pyridin-2-yl)pyrido[3,4-d]pyrimidin-4(3H)-one], the solubility at 2 h in data set [1] (setting [2]) and in data set [1] (setting [3]) was ≥ 1 µM each time. In addition, the IC50 at AHR was < 100 nM.
For `C[C@H](O)Cn1cnc2c(-c3cnn(C)c3)nc(-c3ccc(C(F)(F)F)nc3)cc2c1=O` [Compound 109, (S)-3-(2-hydroxypropyl)-8-(1-methyl-1H-pyrazol-4-yl)-6-(6-(trifluoromethyl)pyridin-3-yl)pyrido[3,4-d]pyrimidin-4(3H)-one], the solubility at 2 h in data set [1] (setting [2]) and in data set [1] (setting [3]) was 0.1 to 1 µM (≈ 0.043 to 0.43 µg/mL) throughout. The IC50 on AHR is < 100 nM.
In the case of `C[C@@H](CO)n1cnc2c(-c3cccnc3)nc(-c3cnc(C(F)(F)F)nc3)cc2c1=O` [Compound 86], the solubility at 2 h in data set [1] (setting [2]) and in data set [1] (setting [3]) was ≥ 1 µM throughout. Besides, the IC50 at AHR is < 100 nM.
As to `Cn1cc(-c2nc(-c3ccc(Cl)cc3)cc3c(=O)n([C@H]4COC[C@@H]4O)cnc23)cn1` [Compound 116], the solubility at 2 h in data set [1] (setting [2]) and in data set [1] (setting [3]) was 0.1 to 1 µM (≈ 0.0424 to 0.424 µg/mL) in each case. Further, the IC50 at AHR was < 100 nM.
For the compound `O=c1c2cc(-c3ccc(C(F)(F)F)cn3)nc(-c3cccnc3)c2ncn1[C@H]1COC[C@H]1O` [Compound 145, 3-((3S,4S)-4-hydroxytetrahydrofuran-3-yl)-8-(pyridin-3-yl)-6-(5-(trifluoromethyl)pyridin-2-yl)pyrido[3,4-d]pyrimidin-4(3H)-one], the solubility at 2 h in data set [1] (setting [2]) is ≥ 1 µM; in data set [1] (setting [3]), 0.1 to 1 µM (≈ 0.0455 to 0.455 µg/mL). In addition, at AHR, the 50% inhibitory concentration (IC50) was < 100 nM.
Consider `O=c1c2cc(-c3ccc(OC(F)(F)F)cc3)nc(-c3cccnc3)c2ncn1C[C@H](O)C(F)(F)F` [Compound 124, (S)-8-(pyridin-3-yl)-3-(3,3,3-trifluoro-2-hydroxypropyl)-6-(4-(trifluoromethoxy)phenyl)pyrido[3,4-d]pyrimidin-4(3H)-one], for which the solubility at 2 h in data set [1] (setting [2]) was ≥ 1 µM; in data set [1] (setting [3]), < 0.1 µM. Besides, the IC50 on AHR is < 100 nM.
As to `Cn1cc(-c2nc(-c3ccc(C(F)(F)F)cn3)cc3c(=O)n(CC(C)(C)O)cnc23)cn1` [Compound 103, 3-(2-hydroxy-2-methylpropyl)-8-(1-methyl-1H-pyrazol-4-yl)-6-(5-(trifluoromethyl)pyridin-2-yl)pyrido[3,4-d]pyrimidin-4(3H)-one], the solubility at 2 h in data set [1] (setting [2]) is 0.1 to 1 µM (≈ 0.0444 to 0.444 µg/mL); in data set [1] (setting [3]), < 0.1 µM. Besides, at AHR, the IC50 was < 100 nM.
Taken in the same sequence, the figures for `C[C@@H](CO)n1cnc2c(-n3ccnc3)nc(-c3ccc(C(F)(F)F)nc3)cc2c1=O` [Compound 163, (S)-3-(1-hydroxypropan-2-yl)-8-(1H-imidazol-1-yl)-6-(6-(trifluoromethyl)pyridin-3-yl)pyrido[3,4-d]pyrimidin-4(3H)-one] were ≥ 1 µM, ≥ 1 µM and < 100 nM.
On to `C[C@@H](CO)n1cnc2c(-c3cccc(F)c3)nc(-c3ccc(C(F)(F)F)nc3)cc2c1=O` [Compound 8], for which the solubility at 2 h in data set [1] (setting [3]) is ≥ 1 µM. The IC50 at AHR is < 100 nM.
As for `C[C@@H](CO)n1cnc2c(-n3ccnc3)nc(-c3ccc(OC(F)(F)F)cc3)cc2c1=O` [Compound 44, (S)-3-(1-hydroxypropan-2-yl)-8-(1H-imidazol-1-yl)-6-(4-(trifluoromethoxy)-phenyl)pyrido[3,4-d]pyrimidin-4(3H)-one], the solubility at 2 h in data set [1] (setting [3]) is 0.1 to 1 µM (≈ 0.0431 to 0.431 µg/mL). Further, on AHR, the half-maximal inhibitory concentration (IC50) was < 100 nM.
In the case of `C[C@@H](CO)n1cnc2c(-n3ccnc3)nc(-c3ccc(C(F)(F)F)cn3)cc2c1=O` [Compound 162, (S)-3-(1-hydroxypropan-2-yl)-8-(1H-imidazol-1-yl)-6-(5-(trifluoromethyl)pyridin-2-yl)pyrido[3,4-d]pyrimidin-4(3H)-one], the solubility at 2 h in data set [1] (setting [2]) and in data set [1] (setting [3]) was ≥ 1 µM throughout. For the same compound, on AHR, the IC50 was < 100 nM.

Values taken from patent publication US20230295152A1 (SENDA BIOSCIENCES, INC., priority 2019, published 2023).
